Results published in patent publication US10913781B2, “Pepducin design and use” (Tufts Medical Center, Inc., priority 2011, dated 2021).
Peptide text beside a SMILES is read from it. * marks the point of attachment. Palmitoyl = CCCCCCCCCCCCCCCC(=O)*

How the values were obtained:
A549 xenografts = type: in vivo, mouse
Description: FIG. 13 illustrates that monotherapy with PAR1-i3 pepducins inhibits tumor progression of A549 xenografts. (A) and (B): A549 mice treated with vehicle, P1pal-7, P1pal-i1-11, P1pal-10S, X1/2-i1, X1/2-i3, or Avastin. Each time point represents the mean±SE. (C): Final tumor volume at the completion of the experiment was calculated as a percentage of untreated vehicle control. (D): Serum-starved A549 adenocarcinoma cells were pretreated with P1pal-7, P1pal-10S, P1pal-i1-11, vehicle, or PD98059 and stimulated with thrombin. VEGF production was assessed by enzyme-linked immunosorbent assay. Data are expressed as mean±SD (*P<0.05, **P<0.01).
PAR1 expression level is correlated with reduced survival of patients with NSCLC. To define the relative importance of PAR1 in lung tumor progression, in vivo mouse models were used. […] An A549 lung adenocarcinoma xenograft model in nude mice was used to evaluate monotherapy with P1pal-7, P1pal-10S, P1pal-i1-11, or the VEGF antagonist Avastin.

PAR1 = molecular target: T1, PAR1 (Homo sapiens, UniProt P25116); assay: PAR1-dependent human platelet aggregation (SFLLRN); type: cell-based; parameters: endogenous in cells; settings: 2.5 μM SFLLRN; P2pal-18S 1 μM or 5 μM
T1 sequence (P25116 22-425): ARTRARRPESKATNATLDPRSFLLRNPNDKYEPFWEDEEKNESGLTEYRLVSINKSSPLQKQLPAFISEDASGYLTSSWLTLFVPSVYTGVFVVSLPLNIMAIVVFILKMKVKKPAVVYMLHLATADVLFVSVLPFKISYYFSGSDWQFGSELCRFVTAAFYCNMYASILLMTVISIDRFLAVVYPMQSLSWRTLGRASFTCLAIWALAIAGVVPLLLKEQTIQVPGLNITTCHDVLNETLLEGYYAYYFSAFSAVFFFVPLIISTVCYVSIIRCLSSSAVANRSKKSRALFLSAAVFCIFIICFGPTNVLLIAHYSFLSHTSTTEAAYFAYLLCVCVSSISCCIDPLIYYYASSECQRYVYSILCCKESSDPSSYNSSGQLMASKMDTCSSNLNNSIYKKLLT
Description: FIG. 5 illustrates: (A) PAR1-dependent human platelet aggregation is not affected by P2pal-18S. Gel-filtered platelets were incubated with 2.5 μM SFLLRN (SEQ ID NO:1) to induce PAR1-dependent platelet aggregation. […] Error bars represent mean±SD. […] Cells were lifted and incubated in PBS/0.4% BSA for 30 min at 25° C. with 0.5-30 μM P2pal-18S or P2pal-14GQ. Propidium iodide (PI) was added directly to the cells and after a 15 min incubation, PI uptake was quantified by flow cytometry. […] Error bars represent ±SEM.

PAR2 [1] = molecular target: T2, PAR2 (Homo sapiens, UniProt P55085); assay: Ligand-dependent endocytosis of PAR2; type: cell-based
Description: Additionally, we tested whether P2pal-18S inhibited proteolytic cleavage of PAR2 or endocytosis (DeFea K A, et al. (2000) J Cell Biol 148: 1267-81; Roosterman D, et al. (2003) Am J Physiol Cell Physiol 284: C1319-29; Stalheim L, et al. (2005) Mol Pharmacol 67: 78-87). […] Therefore, the P2pal-18S i3 loop pepducin can inhibit PAR2-dependent calcium signaling, PLC-b inositol phosphate formation, and cell migration, but not proteolytic cleavage or endocytosis.

PAR2 [2] = molecular target: PAR2 (Mus musculus, UniProt P55086); assay: λ-carrageenan/kaolin-induced mouse paw edema and inflammation (PAR2 pepducin); type: in vivo; parameters: from tissue; host or cells: living C57BL/6 mice, hindpaw; settings: 10 mg/kg s.c.
PAR2 [3] = molecular target: T2, PAR2; assay: Human neutrophil chemotaxis toward mast cell conditioned media (PAR2 pepducin); type: cell-based; parameters: SW620 colon adenocarcinoma cells that endogenously express PAR2; endogenous in cells; host or cells: SW620 (in A7 the SW620 cells were additionally stably transfected with PAR1); settings: 1 mM P2pal-18S; 30 min
Description: (A) Mast cells were treated with 2 mg/mL of mast cell degranulating agent 48/80 or 2% 1-carrageenan/4% kaolin. […] (B) P2pal-18S inhibits human neutrophil chemotaxis (n=6) to mast cell media. Human neutrophils were incubated with […] P2pal-18S, or […] mast cell tryptase inhibitor APC-366 and allowed to migrate 30 min toward CM from mast cells. (C) C57BL/6 mice (n=5) were pretreated with the tryptase inhibitor APC-366 (5 mg/kg, s.c.) or vehicle (20% DMSO) and then challenged with intraplantar injection of 1-carrageenan/kaolin. (D) Mast cell conditioned media (30 μL of 1-carrageenan/kaolin stimulated media) was injected into the hindpaws of C57BL/6 mice treated with 10 mg/kg P2pal-18S or vehicle (n=5). Data represent mean±SEM. #, P=0.07, *, P<0.05 and **, P<0.005. (E) Mast cell-deficient mice have a significant reduction in 1-carrageenan/kaolin induced paw edema (8 h time point, n=4-6) as compared to littermate controls. Mast-cell deficient mice or littermate controls with intact mast cells were treated with P2pal-18S (10 mg/kg, s.c.) or vehicle and hind paws challenged with 1-carrageenan/kaolin irritant. Error bars represent mean±SEM. […]

Sequence of PAR2 (Mus musculus, UniProt P55086) (P55086 26-399): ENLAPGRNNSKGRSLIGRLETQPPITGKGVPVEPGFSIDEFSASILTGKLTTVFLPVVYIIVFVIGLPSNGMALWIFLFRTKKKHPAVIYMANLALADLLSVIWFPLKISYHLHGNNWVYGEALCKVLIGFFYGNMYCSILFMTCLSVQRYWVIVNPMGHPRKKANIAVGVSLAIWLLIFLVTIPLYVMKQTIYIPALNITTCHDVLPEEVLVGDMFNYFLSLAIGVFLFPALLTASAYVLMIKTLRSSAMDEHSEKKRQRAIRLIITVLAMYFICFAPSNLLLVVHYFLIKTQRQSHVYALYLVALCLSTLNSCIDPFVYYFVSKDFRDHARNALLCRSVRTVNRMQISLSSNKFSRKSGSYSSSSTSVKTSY
T2 sequence (P55085 26-397): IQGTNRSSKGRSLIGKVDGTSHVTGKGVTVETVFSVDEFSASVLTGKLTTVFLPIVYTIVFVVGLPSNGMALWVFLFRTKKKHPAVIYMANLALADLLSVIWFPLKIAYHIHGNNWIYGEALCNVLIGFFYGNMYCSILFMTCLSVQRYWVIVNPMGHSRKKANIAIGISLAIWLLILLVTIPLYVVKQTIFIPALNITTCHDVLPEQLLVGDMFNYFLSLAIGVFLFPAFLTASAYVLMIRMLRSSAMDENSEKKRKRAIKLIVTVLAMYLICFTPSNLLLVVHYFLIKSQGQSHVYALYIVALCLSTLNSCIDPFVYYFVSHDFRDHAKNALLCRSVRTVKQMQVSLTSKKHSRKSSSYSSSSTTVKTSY

| SMILES | Early tumor growth blockade (A549 xenografts; by day 20) | Inhibition of tumor progression/growth (final tumor volume vs vehicle) (A549 xenografts; monotherapy, nude mice) | Effect on PAR1-dependent platelet aggregation (PAR1) | Inhibition of ligand-dependent endocytosis of PAR2 (PAR2 [1]) | Effect on increase in myeloperoxidase activity in hindpaw tissue (PAR2 [2]; 7 h after λ-carrageenan/kaolin, WT mice) | Protection against leukocytic infiltrates in the dermis of the footpads (PAR2 [2]; 7 h post λ-carrageenan/kaolin) [%] | Effect on swelling in PAR2-deficient mice (PAR2 [2]; PAR2-deficient mice) | Decrease in λ-carrageenan/kaolin-induced edema (PAR2 [2]; WT C57BL/6 mice) [%] | Effect on paw edema in mast cell-deficient mice (PAR2 [2]; mast cell-deficient mice, λ-carrageenan/kaolin) | Inhibition of chemotactic migration toward tryptase-containing mast cell media (PAR2 [3]) |
| --- | --- | --- | --- | --- | --- | --- | --- | --- | --- | --- |
| CCCCCCCCCCCCCCCC(=O)N[C@H](C(=O)N[C@@H](CC(C)C)C(=O)N[C@@H](CCCCN)C(=O)N[C@@H](CCSC)C(=O)N[C@@H](CCCCN)C(=O)N[C@H](C(=O)N[C@@H](CCCCN)C(=O)N[C@@H](CCCCN)C(=O)N1CCC[C@H]1C(=O)N[C@@H](C)C(=O)N[C@H](C(N)=O)C(C)C)C(C)C)[C@@H](C)CC [P1pal-i1-11] (Palmitoyl-ILKMKVKKPAV-NH2) | significant blockade of tumor growth | did not inhibit the long-term growth | – | – | – | – | – | – | – | – |
| CCCCCCCCCCCCCCCC(=O)N[C@@H](CCCNC(=N)N)C(=O)N[C@@H](CO)C(=O)N[C@@H](CO)C(=O)N[C@@H](C)C(=O)N[C@@H](CCSC)C(=O)N[C@@H](CC(=O)O)C(=O)N[C@@H](CCC(=O)O)C(=O)N[C@@H](CC(N)=O)C(=O)N[C@@H](CO)C(=O)N[C@@H](CCC(=O)O)C(=O)N[C@@H](CCCCN)C(=O)N[C@@H](CCCCN)C(=O)N[C@@H](CCCNC(=N)N)C(=O)N[C@@H](CCCCN)C(=O)N[C@@H](CO)C(=O)N[C@@H](C)C(=O)N[C@H](C(=O)N[C@@H](CCCCN)C(N)=O)[C@@H](C)CC [P2pal-18S] | – | – | had no effect | did not inhibit | blocked | 60 | did not further reduce swelling | 50 | could not be further reduced | completely inhibited |
